Assay results published in ChEMBL document CHEMBL4483862, “Open-source discovery of chemical leads for next-generation chemoprotective antimalarials” (2018).

System: Plasmodium berghei
Assay: Luciferase/luciferin-expressing antifolate-resistant parasites were used to infect a culture of HepG2 cells that were pre-incubated with compounds. Infected hepatocytes emit light due to the luciferase reaction. Assay results are presented as the percent inhibition of light emission compared to control. […]
Type: functional
Details: sporozoite; for IC90: read-out: LUCIFERASE INFECTION ASSAY - IC90
[1] = read-out: LUCIFERASE INFECTION ASSAY - IC50

SMILES	IC90 [µM]	other results
Fc1ccc(-c2cnn3c(NCc4cccs4)ccnc23)cc1Cl	7.94	IC50 (PBLUC_HILL_SLOPE 0.723, PBLUC_R_SQUARED 0.681, read-out: LUCIFERASE INFECTION ASSAY - IC50): 0.38 µM
COc1ccc(CN=C2NN=C(c3cc4ccccc4o3)CS2)cc1	0.318	IC50 (HEPG2TOX_HILL_SLOPE 1.33, HEPG2TOX_R_SQUARED 0.982, PBLUC_HILL_SLOPE 1.63, PBLUC_R_SQUARED 0.322, read-out: LUCIFERASE INFECTION ASSAY - IC50): 0.0829 µM
O=C(Nc1nc(-c2ccccn2)cs1)c1ccc(=O)n(Cc2ccccc2)n1	9.95	IC50 (PBLUC_HILL_SLOPE 15.2, PBLUC_R_SQUARED 0.0748, read-out: LUCIFERASE INFECTION ASSAY - IC50): 8.61 µM
COc1ccc(OC)c(NC(=O)Nc2ccc(OC(F)(F)F)cc2)c1	> 9.26	IC50 (PBLUC_HILL_SLOPE 22.3, PBLUC_R_SQUARED 0.0229, read-out: LUCIFERASE INFECTION ASSAY - IC50): 9.07 µM
COc1ccc(C2=NNC(=NCc3ccc4c(c3)OCO4)SC2)cc1F	> 10	IC50 (FFLUC_HILL_SLOPE 1.69, FFLUC_R_SQUARED 0.437, PBLUC_HILL_SLOPE 4.83, PBLUC_R_SQUARED 0.0332, read-out: LUCIFERASE INFECTION ASSAY - IC50): 8.77 µM
O=C(Nc1cccc(C2NCC(c3ccccc3Cl)c3c2[nH]c2ccccc32)c1)c1ccc(Cl)cc1 (centres undefined)	> 10	IC50 (FFLUC_HILL_SLOPE 18, FFLUC_R_SQUARED 0.972, PBLUC_HILL_SLOPE 3.03, PBLUC_R_SQUARED 0.515, read-out: LUCIFERASE INFECTION ASSAY - IC50): 7.4 µM
O=C(Nc1ccccc1)Nc1nnc(C(F)(F)F)s1	1.07	IC50 (HEPG2TOX_HILL_SLOPE 2.53, HEPG2TOX_R_SQUARED 0.953, PBLUC_HILL_SLOPE 4.44, PBLUC_R_SQUARED 0.774, read-out: LUCIFERASE INFECTION ASSAY - IC50): 0.65 µM
COc1cc(-c2[nH]nc3nccc(-c4ccc(C(C)C)cc4)c23)cc(OC)c1OC	> 10	IC50 (HEPG2TOX_HILL_SLOPE 2.15, HEPG2TOX_R_SQUARED 0.552, PBLUC_HILL_SLOPE 10.1, PBLUC_R_SQUARED 0.355, read-out: LUCIFERASE INFECTION ASSAY - IC50): 8.21 µM
CC(C)NC(=O)/C(C#N)=C/c1cccc(Cl)c1Cl	> 10	IC50 (HEPG2TOX_HILL_SLOPE 9.7, HEPG2TOX_R_SQUARED 0.0223, read-out: LUCIFERASE INFECTION ASSAY - IC50): > 10 µM
Cc1ccc(C(C)C)c(OCc2nnnn2-c2ccc(Br)cc2)c1	> 8.52	IC50 [1]: 4.96 µM
CC(C)n1c(Sc2ncc([N+](=O)[O-])s2)nc2ccccc21	4.36	IC50 (FFLUC_HILL_SLOPE 5.73, FFLUC_R_SQUARED 0.583, HEPG2TOX_HILL_SLOPE 3.25, HEPG2TOX_R_SQUARED 0.992, PBLUC_HILL_SLOPE 9.74, PBLUC_R_SQUARED 0.283, read-out: LUCIFERASE INFECTION ASSAY - IC50): 3.48 µM
CC(C)(C)C(=O)CC(=O)Nc1ccc(C(F)(F)F)cc1	> 11.5	IC50 (FFLUC_HILL_SLOPE 0.143, FFLUC_R_SQUARED 0.0864, PBLUC_HILL_SLOPE 0.817, PBLUC_R_SQUARED 0.0775, read-out: LUCIFERASE INFECTION ASSAY - IC50): > 11.5 µM
O=C(Nc1ccccc1)c1ccc(CN2C(=O)NC(c3ccccc3)(c3ccccc3)C2=O)cc1	3.94	IC50 (FFLUC_HILL_SLOPE 6.57, FFLUC_R_SQUARED 0.404, PBLUC_HILL_SLOPE 14.6, PBLUC_R_SQUARED 0.481, read-out: LUCIFERASE INFECTION ASSAY - IC50): 3.39 µM
CN(C)S(=O)(=O)c1ccc(CNc2ccnc3cc(Cl)ccc23)s1	3.6	IC50 (PBLUC_HILL_SLOPE 38.6, PBLUC_R_SQUARED 0.0785, read-out: LUCIFERASE INFECTION ASSAY - IC50): 3.4 µM
CCN1CCN(c2nc(CC(C)C)c3c(c2C#N)CCCC3)CC1	> 10.1	IC50 [1]: > 10.1 µM
COc1ccc(S(=O)(=O)N2CCc3ccccc32)cc1C(=O)Oc1c(Cl)cc(Cl)c2ccc(C)nc12	> 10	IC50 (PBLUC_HILL_SLOPE 13.5, PBLUC_R_SQUARED 0.253, read-out: LUCIFERASE INFECTION ASSAY - IC50): > 10 µM
Cc1cc(C(=O)N(C)Cc2nc(=O)c3ccccc3[nH]2)c(C)n1-c1ccccc1F	> 10	IC50 (PBLUC_HILL_SLOPE 1.44, PBLUC_R_SQUARED 0.478, read-out: LUCIFERASE INFECTION ASSAY - IC50): 6.97 µM
CC(C)(C)c1cc(NC(=O)CN2CCN(CCOc3ccccc3)CC2)n(-c2ccccc2)n1	> 10	IC50 (PBLUC_HILL_SLOPE 3.74, PBLUC_R_SQUARED 0.753, read-out: LUCIFERASE INFECTION ASSAY - IC50): 6.22 µM
CC(C)Oc1ccc(Nc2nccc3[nH]c(-c4ccsc4)cc23)cc1	4.09	IC50 [1]: 2.25 µM

SMILES	IC90 [µM]	other results
C=CCN(c1ccccc1)S(=O)(=O)c1cc(C(=O)NCC2(N3CCCCC3)CCCCC2)ccc1Cl	> 10	IC50 (HEPG2TOX_HILL_SLOPE 0.94, HEPG2TOX_R_SQUARED 0.4, PBLUC_HILL_SLOPE 1.67, PBLUC_R_SQUARED 0.0797, read-out: LUCIFERASE INFECTION ASSAY - IC50): 5.22 µM
CSc1sc(Cl)c2c1/C(=N\O)CC(C)(C)C2	> 12	IC50 [1]: > 12 µM
CCn1c2ccccc2c2cc(NC(=O)c3ccncc3)ccc21	3.82	IC50 (HEPG2TOX_HILL_SLOPE 3.45, HEPG2TOX_R_SQUARED 0.806, PBLUC_HILL_SLOPE 11.3, PBLUC_R_SQUARED 0.493, read-out: LUCIFERASE INFECTION ASSAY - IC50): 3.14 µM
CC(=O)O[C@H]1CC[C@]2(C)C3CC[C@]4(C)C(C5=CC(=O)OC5)CC[C@]4(O)C3CC[C@@H]2C1 (some centres undefined)	1.14	IC50 (HEPG2TOX_HILL_SLOPE 2.72, HEPG2TOX_R_SQUARED 0.979, PBLUC_HILL_SLOPE 2.85, PBLUC_R_SQUARED 0.935, read-out: LUCIFERASE INFECTION ASSAY - IC50): 0.528 µM
COc1ccc(-c2csc3ncnc(NC4CCN(S(C)(=O)=O)CC4)c23)cc1	> 10	IC50 (FFLUC_HILL_SLOPE 15, FFLUC_R_SQUARED 0.503, HEPG2TOX_HILL_SLOPE 1.74, HEPG2TOX_R_SQUARED 0.848, read-out: LUCIFERASE INFECTION ASSAY - IC50): > 10 µM
CCCc1c(Cc2c(F)cccc2Cl)c(=O)oc2cc(OC(=O)c3ccccc3Cl)ccc12	> 6.8	IC50 [1]: > 6.8 µM
Cc1cccc(N(C)c2ccnc3c(-c4ccc(C(=O)NC5CC5)cc4)cnn23)c1	6.33	IC50 (PBLUC_HILL_SLOPE 3.89, PBLUC_R_SQUARED 0.384, read-out: LUCIFERASE INFECTION ASSAY - IC50): 3.6 µM
O=[N+]([O-])c1cc(C(F)(F)F)ccc1N1CCCN(C(=S)Nc2cccc(C(F)(F)F)c2)CC1	> 6.7	IC50 (FFLUC_HILL_SLOPE 18.8, FFLUC_R_SQUARED 0.397, HEPG2TOX_HILL_SLOPE 0.504, HEPG2TOX_R_SQUARED 0.366, read-out: LUCIFERASE INFECTION ASSAY - IC50): > 6.7 µM
Cn1c(SCc2nc3ccc(Cl)cc3n2CCO)nc2scc(-c3ccc(F)cc3)c2c1=O	3.59	IC50 (PBLUC_HILL_SLOPE 30.6, PBLUC_R_SQUARED 0.504, read-out: LUCIFERASE INFECTION ASSAY - IC50): 3.34 µM
CN(C)CCNC(=O)c1ccc(-c2cn3c(-c4ccc(Cl)cc4)cnc3cn2)cc1	3.79	IC50 (HEPG2TOX_HILL_SLOPE 1.7, HEPG2TOX_R_SQUARED 0.889, PBLUC_HILL_SLOPE 9.39, PBLUC_R_SQUARED 0.389, read-out: LUCIFERASE INFECTION ASSAY - IC50): 3 µM
CCCNC(=O)c1c(NC(=O)c2ccc(CC)cc2)nc2ccc(C)cn12	3.22	IC50 (HEPG2TOX_HILL_SLOPE 14.6, HEPG2TOX_R_SQUARED 0.266, PBLUC_HILL_SLOPE 22.2, PBLUC_R_SQUARED 0.534, read-out: LUCIFERASE INFECTION ASSAY - IC50): 2.92 µM
COc1cccc(-c2cnc3c(NC=O)cc(-c4ccc(OC)cc4OC)cn23)c1	0.664	IC50 (HEPG2TOX_HILL_SLOPE 0.453, HEPG2TOX_R_SQUARED 0.602, PBLUC_HILL_SLOPE 0.932, PBLUC_R_SQUARED 0.666, read-out: LUCIFERASE INFECTION ASSAY - IC50): 0.0629 µM
CC1Cc2ccccc2N1C(=O)COC(=O)c1ccc([N+](=O)[O-])cc1 (centres undefined)	> 10	IC50 [1]: > 10 µM
N=C(N)N/N=C/c1ccc(N(c2ccccc2)c2ccccc2)cc1	9.95	IC50 [1]: 8.03 µM
CCN1C(=O)N(CC(N)=O)C(=O)C12CCN(Cc1ccc(N(C)c3ccccc3)cc1)CC2	> 7.34	IC50 (HEPG2TOX_HILL_SLOPE 2.17, HEPG2TOX_R_SQUARED 0.96, PBLUC_HILL_SLOPE 2.1, PBLUC_R_SQUARED 0.458, read-out: LUCIFERASE INFECTION ASSAY - IC50): 3.27 µM
CCOc1cc2ccccc2cc1C(=O)NNC(=O)c1ccccn1	1.23	IC50 (HEPG2TOX_HILL_SLOPE 1.13, 0.817, HEPG2TOX_R_SQUARED 0.858, 0.909, PBLUC_HILL_SLOPE 4.86, PBLUC_R_SQUARED 0.852, read-out: LUCIFERASE INFECTION ASSAY - IC50): 0.78 µM
Cc1nn(-c2cccc(C(F)(F)F)c2)c2c1C=Nc1cc(S(=O)(=O)N3CCOCC3)ccc1O2	> 10	IC50 (PBLUC_HILL_SLOPE 4.52, PBLUC_R_SQUARED 0.617, read-out: LUCIFERASE INFECTION ASSAY - IC50): 8.73 µM
CCCn1c(-c2ccc(OC)cc2)nc2c(c(=O)c3ccccc3n2C)c1=O	7.12	IC50 (PBLUC_HILL_SLOPE 3.15, PBLUC_R_SQUARED 0.522, read-out: LUCIFERASE INFECTION ASSAY - IC50): 3.55 µM
